These results are taken from PubChem BioAssay (NCI).

Assay in all cases: DTP human tumour cell line panel, 48 h
Assay [1] has as its system SW-620 colon.
For assay [2], the system named is UO-31 renal.
The test system of assay [3] is T-47D breast.
Assay [4] deals with A498 renal.
Assay [5] concerns TK-10 renal.
Assay [6] relates to DU-145 prostate.
In assay [7] the test system is HCT-116 colon.
Assay [8] deals with KM12 colon.
Assay [9] relates to SK-MEL-2 melanoma.
The test system of assay [10] is HOP-62 NSCLC.

Each structure is given as a SMILES string. Several values for one entry are separate records, joined by “and”; a condition that tells them apart may be missing. Equal values may be shown once.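 48-hour exposure; five concentrations; linearly interpolated endpoints. GI50 marks 50% less growth. TGI marks complete inhibition of growth.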 A value given as a limit tells only on which side of the number the result lay.

The TGI is the concentration at which net growth stops. A low value points to more potent growth arrest. Regarding `Cc1ccc2nc(C=Nc3ccc(Cl)cc3)cc(C)c2c1`, the TGI was 27.2 µM in assay [1]; 7.91 µM in assay [2]; 48.1 µM in assay [3]; above 100 µM in [4]; 57 µM in assay [5]; above 100 µM in [6]. In addition, the TGI is 14.3 µM in assay [7], 24.7 µM in [8], above 100 µM in assay [9] and 22.5 µM in assay [10].
The term GI50 denotes the concentration that inhibits growth by half. `CN1CCN(c2ccc3nc(-c4ccc5nc(-c6ccc(O)cc6)[nH]c5c4)[nH]c3c2)CC1`: the TGI in [1] was determined as 959 µM; in assay [2] it was 938 µM; in assay [3], 153 µM; in assay [4] it was 763 µM; in assay [5], 1300 µM; in assay [6] it was 526 µM. Further, the TGI is 512 µM in [7], 678 µM in assay [8], 578 µM in assay [9] and 1040 µM in assay [10]. Besides, the GI50 was 10.6 µM in assay [2]; 4.32 µM and 14.2 µM in assay [3]; 5.66 µM and 30.5 µM in assay [7]; 198 µM in assay [9].
Turning to `O=c1c2cc(Cl)cc(Cl)c2oc2nc3n(c(=O)c12)CCCS3`, the TGI is above 100 µM in [1]; 40.4 µM in assay [2]; above 100 µM in [3]; above 100 µM in [4]; above 100 µM in assay [5]; above 100 µM in [6]. Besides, the TGI in [7], in assay [8], in assay [9] and in [10] was above 100 µM in each case.
For the compound `Cc1cccc(-c2cc(=O)c3c(C)cc(C)nc3[nH]2)c1`, the TGI is above 19.7 µM in assay [1]; above 100 µM in assay [2]; above 100 µM in assay [3]; 29.3 µM in assay [4]; above 100 µM in assay [5]; above 100 µM in assay [6]. Besides, the TGI in assay [7] was above 39.1 µM; in assay [8], 21.9 µM; in [9], above 100 µM; in assay [10] it was above 100 µM.
Consider `O=C1C=C(OCCCCl)C(=O)c2c(O)ccc(O)c21`, for which the TGI was determined as 2.3 µM in [1]; 2.41 µM in [2]; 4.63 µM in [3]; 3.57 µM in [4]; 3.46 µM in [5]; 0.863 µM in [6]. Also, the TGI in assay [7] came out at 1.28 µM; in assay [8], 3.37 µM; in assay [9], 2.43 µM; in [10], 2.75 µM.
In the case of `CCOC(=O)c1c2c(c(O)c3ccccc3c(O)n(Cc3ccccc3)c1C)C(=O)C=CC2=O`, the TGI in [1], in assay [2], in [3], in assay [4], in assay [5] and in assay [6] was above 100 µM in each case. The TGI in [7], in assay [8], in [9] and in assay [10] was above 100 µM each time.
On to `OCCOc1ccccc2cccc1-2`, for which the TGI in assay [1], in assay [2], in assay [3], in assay [4], in assay [5] and in assay [6] was above 100 µM throughout. The TGI in assay [7], in [8], in assay [9] and in assay [10] was above 100 µM throughout.
With `C[N+](C)(C)CC(=O)N/N=C/c1ccncc1`, the TGI in [1], in assay [2], in assay [3], in [4], in [5] and in assay [6] was above 100 µM each time. For the same compound, the TGI in [7], in assay [8], in [9] and in assay [10] was above 100 µM each time.
With `O=C(O)CCCc1ccc2ccccc2c1`, the TGI in assay [1], in assay [2], in [3], in [4], in assay [5] and in assay [6] was above 100 µM in each case. Further, the TGI in [7], in assay [8], in assay [9] and in assay [10] was above 100 µM throughout.
Turning to `COc1cc(-c2[o+]c3cc(O)cc(O)c3cc2O)cc(O)c1O`, the TGI in assay [1], in assay [2], in assay [3], in [4], in [5] and in assay [6] was above 100 µM each time. Besides, the TGI in assay [7], in assay [8], in assay [9] and in assay [10] was above 100 µM throughout.
Turning to `CCOC(=O)C(=O)/C(=C/N1C(=O)CC(=O)NC1=S)C(=O)OCC`, the TGI in assay [1], in assay [2], in assay [3], in assay [4], in assay [5] and in assay [6] was above 100 µM each time. The TGI in assay [7], in assay [8], in assay [9] and in assay [10] was above 100 µM throughout. In addition, the GI50 in assay [5] was above 100 µM.
Consider `COc1ccc2[nH]c3c(C)c4ccnc(NCCCN(C)CCCNc5ccc6ncn7c8ccccc8c(=O)c5c67)c4c(C)c3c2c1`, for which the TGI was 25 µM in [1]; 4.21 µM in [2]; 9.46 µM in [3]; 15.2 µM in assay [4]; 5.49 µM in [5]; 4.14 µM in [6]. Further, the TGI was found to be 3.01 µM in assay [7], 4.65 µM in assay [8], 8.74 µM in assay [9] and 0.784 µM in assay [10].
Regarding `COc1cccc(N(CN2C(=O)CCC2C(=O)O)C(C)=O)c1` (stereo not given), the TGI in assay [1], in assay [2], in assay [3], in assay [4], in [5] and in [6] was above 100 µM each time. Besides, the TGI in [7], in assay [8], in assay [9] and in [10] was above 100 µM each time.
As to `COC(=O)C1=C(C)C=C(N2CCOCC2)C(C(=O)OC)C1c1ccccc1` (stereo not given), the concentration for total growth inhibition (TGI) in [1], in assay [2], in [3], in assay [4], in [5] and in assay [6] was above 10 µM each time. The TGI in assay [7], in assay [8], in assay [9] and in [10] was above 10 µM each time.
For `COC1OC(COC(=O)c2cc(O)c(O)c(O)c2)C(OC(=O)c2cc(O)c(O)c(O)c2)C(OC(=O)c2cc(O)c(O)c(O)c2)C1OC(=O)c1cc(O)c(O)c(O)c1` (stereo not given), the TGI in assay [1] was above 100 µM; in assay [2] it was above 100 µM; in assay [3], above 100 µM; in assay [4] it was 62.6 µM; in assay [5], above 100 µM; in assay [6] it was above 100 µM. Also, the TGI in [7], in assay [8], in [9] and in assay [10] was above 100 µM in each case.
On to `C[C@@H](NC(=O)c1ccc(CNC(=O)/C=C/c2cccc(Oc3ccccc3)c2)cc1)c1ccccc1`, for which the TGI was above 100 µM in assay [1]; 27.5 µM in assay [2]; above 100 µM in assay [3]; above 90.4 µM in [4]; above 89.2 µM in assay [5]; above 100 µM in [6]. Also, the TGI is above 100 µM in assay [7], above 100 µM in assay [8], above 100 µM in [9] and above 61.7 µM in assay [10].
In the case of `O=C1C=CC(=O)c2c1ccc1c3ccccc3n(Cc3cccc([N+](=O)[O-])c3)c21`, the TGI in [1] is 32.4 µM; in assay [2], above 100 µM; in [3], 67.7 µM; in [4], above 100 µM; in assay [5], 44.8 µM; in assay [6], above 100 µM. The total growth inhibition concentration (TGI) in [7] is above 62.7 µM; in assay [8] it was above 100 µM; in assay [9], above 100 µM; in assay [10] it was above 100 µM.
On to `CC(C)Cc1cc2c(cc1O)CCC1C2CC[C@@]2(C)C1CC[C@@H]2O` (stereo not given in full), for which the total growth inhibition concentration (TGI) in [1] is 25.4 µM; in [2] it was 13.4 µM; in assay [3], 23.4 µM; in assay [4] it was 35.5 µM; in assay [5], 23.1 µM; in assay [6], 23.1 µM. Moreover, the TGI in [7] came to 16.2 µM; in [8] it was 17.4 µM; in assay [9], 15.7 µM; in [10], 33.1 µM.
`Cc1nnc(N)nc1/C=C/c1c(O)ccc2ccccc12`: the TGI in assay [1] was above 100 µM; in assay [2], 84.6 µM; in assay [3], above 100 µM; in assay [4] it was 47.1 µM; in assay [5] it was above 100 µM; in [6], above 100 µM. Moreover, the TGI was above 100 µM in assay [7], above 100 µM in [8], 35.5 µM in assay [9] and above 100 µM in [10].
With `O=C(CNC(c1ccccc1)(c1ccccc1)c1ccccc1)NC1CCCCC1NC(=O)CNC(c1ccccc1)(c1ccccc1)c1ccccc1` (stereo not given), the TGI in [1], in assay [2], in assay [3], in [4], in assay [5] and in assay [6] was above 100 µM in each case. The TGI was above 100 µM in assay [7], above 100 µM in [8], above 100 µM in assay [9] and 91.6 µM in [10].
For the compound `CCN(CC)Cc1c(/C=C\c2cc(OC)c(OC)c(OC)c2)ccc(OC)c1O`, the TGI in assay [1] is above 100 µM; in assay [2] it was above 94.1 µM; in assay [3] it was above 100 µM; in [4], 17.4 µM; in [5], above 100 µM; in assay [6] it was 39.7 µM. Further, the TGI was 42.7 µM in assay [7], 27.1 µM in assay [8], above 37.1 µM in assay [9] and above 100 µM in [10].
